Assay results as given in PubChem BioAssay AID1963450 (Molecular Pharmacology Branch, DTP, NCI, 2024).

Tested on: 556581-035-R-J1-PDC complex spheroid growth
Assay: Anticancer human tumor 556581-035-R-J1-PDC patient-derived ovarian carcinoma cell line growth inhibition [Asc]
Conditions: for IC50: curve of first compound; for viability, T/C: stronger effect = lower value
Method: Multicellular complex tumor spheroid response to apoptosis pathway targeting inhibitors Alrizomadlin, Pelcitoclax, and Dasminapant in combination with a variety of drugs and investigational agents in selected tumor cell lines
The MDM2 inhibitor alrizomadlin, the Bcl-2/Bcl-xL inhibitor pelcitoclax, and the IAPs inhibitor dasminapant were evaluated both individually and in combination with standard of care and investigational anticancer small molecules within a complex spheroid model of solid tumors. . Complex spheroids include a stromal component modeled by human endothelial cells (HUVEC) and fibroblasts modeled by human mesenchymal stem cells (MSCs). The concentration ranges selected for each drug and investigational agent were based upon clinically achievable concentrations if the clinical Cmax of the agent was known.
Compounds. The drugs and investigational agents: alrizomadlin (APG-115; NSC831270), pelcitoclax (APG-1252; NSC835773), dasminapant (APG-1387;NSC834197), TAK-243 (NSC785004), copanlisib (NSC809693), olaparib (NSC753686), talazoparib (NSC767125), cobimetinib (NSC 768068), eltanexor (KPT-8602, NSC 794443), abemaciclib (NSC 768073), sotorasib (NSC818433), adagrasib (NSC 831453), MRTX-1133 (NSC 836407), Iadademestat (ORY1001, NSC 806812), and RMC-4630 (NSC839698), were obtained from the NCI Developmental Therapeutics Program Chemical Repository. The FDA-approved anticancer drug set is available from the Developmental Therapeutics Program at https://dtp.cancer.gov/organization/dscb/obtaining/available plates.htm. […] The stock solutions were prepared in dimethyl sulfoxide (DMSO, Sigma-Aldrich, St. Louis, MO, cat. D2650) at 800-fold the tested concentration and stored at -70 degrees C prior to their use. All drugs and investigational agents were tested over a range starting from a high concentration at or near the clinical Cmax and decreasing in half-log increments. If the clinical Cmax for an agent had not been determined, the highest concentration tested was 10 microM.
The patient-derived cancer (PDC) cell lines include five colon adenocarcinomas: 186277-243-T-J2-PDC, 616215-338-R-J1-PDC, 439559-082-T-J2-PDC, 463943-066-T-J2-PDC, and 519858-162-T-J1-PDC; three pancreatic carcinomas: 323965-272-R-J2-PDC, 521955-158-R6-J3-PDC, and 521955-158-R2-J5-PDC; two uterine sarcomas: 327498-152-R-J2-PDC and 993429-296-R-J1-PDC; two rhabdomyosarcomas: 755483-174-R-J1-PDC and 772245-204-R-J1-PDC; two soft tissue sarcomas: 126254-015-R-J1-PDC and 494315-158-R-J1-PDC; two malignant fibrous histiocytomas: 317291-083-R-J1-PDC and 596521-263-R-J1-PDC; two breast carcinomas: 171881-019-R-J1-PDC and 885512-296-R-J2-PDC; and one ovarian carcinoma: 6556581-035-R-J-PDC were obtained from the NCI PDMR, (https://pdmr.cancer.gov). The established cell lines HSSY-2 synovial sarcoma (RRID:CVCL 8719), SYO-1 synovial sarcoma (RRID:CVCL_7146), MPNST malignant peripheral neural sheath tumor were obtained from the Sloan Kettering Institute. The following established cell lines were purchased from the American Type Culture Collection (ATCC, Manassas, VA), Sor the received from the NCI repository:, PANC-1 pancreatic carcinoma (CRL-1469, RRID:CVCL_0480), OVCAR-5 ovarian carcinoma (RRID:CVCL_1628), OVCAR-8 ovarian carcinoma (RRID:CVCL_1629), , MCF-7 breast carcinoma (CRL-12584, RRID:CVCL_0031), MDA-MB-231 breast carcinoma (CRL-12532, RRID:CVCL_0062), NCI-H1876 small cell lung carcinoma (CRL-5902, RRID:CVCL_1503), NCI-H510A small cell lung carcinoma (HTB-184, RRID:CVCL_1565), NCI-H1417 (CRL-5869, RRID:CVCL_1469), and NCI-H196 small cell lung carcinoma (CRL-5823, RRID:CVCL_1509). Dr. Peter Houghton (Greehey Children's Cancer Research Institute, University of Texas Health Science Center, San Antonio, TX) provided Rh-18 rhabdomyosarcoma (RRID:CVCL_1659). Pooled donor human umbilical vein endothelial cells (HUVEC, Lonza, cat. CC-2519) and human mesenchymal stem cells (hMSC, Lonza, cat. PT-2501) were purchased from Lonza (Walkersville, MD).
Cell Culture. […]

[1] = second compound 0.1 µM, first compound 0.0316 µM
[2] = second compound 0.1 µM, first compound 0.1 µM
[3] = second compound 0.316 µM, first compound 0.0316 µM
[4] = second compound 0.316 µM, first compound 0.1 µM
[5] = second compound 1 µM, first compound 0.0316 µM
[6] = second compound 1 µM, first compound 0.1 µM
[7] = second compound 3.16 µM, first compound 0.0316 µM
[8] = second compound 3.16 µM, first compound 0.1 µM
[9] = second compound 10 µM, first compound 0.0316 µM
[10] = second compound 10 µM, first compound 0.1 µM
[11] = second compound 0.1 µM, first compound 0.316 µM
[12] = second compound 0.1 µM, first compound 1 µM
[13] = second compound 0.1 µM, first compound 3.16 µM
[14] = second compound 0.1 µM, first compound 10 µM
[15] = second compound 0.316 µM, first compound 0.316 µM
[16] = second compound 0.316 µM, first compound 1 µM
[17] = second compound 0.316 µM, first compound 3.16 µM
[18] = second compound 0.316 µM, first compound 10 µM
[19] = second compound 1 µM, first compound 0.316 µM
[20] = second compound 1 µM, first compound 1 µM
[21] = second compound 1 µM, first compound 3.16 µM
[22] = second compound 1 µM, first compound 10 µM
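Also: spheroids exposed to agents for 7 days before viability read.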

With `Cn1ncnc1[C@H]1c2n[nH]c(=O)c3cc(F)cc(c23)N[C@@H]1c1ccc(F)cc1` + Cc1c(S(C)(=O)=O)c(-c2cc(F)cc(N3CCN(c4ccc(NS(=O)(=O)c5ccc(NC(CCN6CCC(C(=O)OCCCP(=O)(O)O)CC6)CSc6ccccc6)c(S(=O)(=O)C(F)(F)F)c5)cc4)CC3)c2)c(-c2ccc(Cl)cc2)n1C(C)C the IC50 (second compound 0.1 µM) was over 100 nM, the IC50 (second compound 0.316 µM) was over 100 nM and the IC50 (second compound 1 µM) was over 100 nM. It also gave an IC50 (second compound 3.16 µM) of over 100 nM, an IC50 (second compound 10 µM) of over 100 nM and a viability, T/C (second compound 0.1 µM, first compound 0.000316 µM) of 67.5%. The viability, T/C (second compound 0.1 µM, first compound 0.001 µM) was 88%, the viability, T/C (second compound 0.1 µM, first compound 0.00316 µM) was 94.8% and the viability, T/C (second compound 0.1 µM, first compound 0.01 µM) was 78%. For the same compound, the viability, T/C [1] was 84.4%, the viability, T/C [2] was 77.2% and the viability, T/C (second compound 0.316 µM, first compound 0.000316 µM) was 84.9%. The viability, T/C (second compound 0.316 µM, first compound 0.001 µM) was 81.1%, the viability, T/C (second compound 0.316 µM, first compound 0.00316 µM) was 72% and the viability, T/C (second compound 0.316 µM, first compound 0.01 µM) was 66.6%. The viability, T/C [3] was 79.9%, the viability, T/C [4] was 84% and the viability, T/C (second compound 1 µM, first compound 0.000316 µM) was 79.5%. For the same compound, the viability, T/C (second compound 1 µM, first compound 0.001 µM) was 84.2%, the viability, T/C (second compound 1 µM, first compound 0.00316 µM) was 78.3% and the viability, T/C (second compound 1 µM, first compound 0.01 µM) was 79.8%. For the same compound, the viability, T/C [5] was 73.7%, the viability, T/C [6] was 72.1% and the viability, T/C (second compound 3.16 µM, first compound 0.000316 µM) was 74.3%. It also gave a viability, T/C (second compound 3.16 µM, first compound 0.001 µM) of 73.2%, a viability, T/C (second compound 3.16 µM, first compound 0.00316 µM) of 70.2% and a viability, T/C (second compound 3.16 µM, first compound 0.01 µM) of 72.9%. The viability, T/C [7] was 64.4%, the viability, T/C [8] was 81.8% and the viability, T/C (second compound 10 µM, first compound 0.000316 µM) was 86.4%. The viability, T/C (second compound 10 µM, first compound 0.001 µM) was 69.2%, the viability, T/C (second compound 10 µM, first compound 0.00316 µM) was 66.5% and the viability, T/C (second compound 10 µM, first compound 0.01 µM) was 64.5%. The viability, T/C [9] was 62.7% and the viability, T/C [10] was 64.9%.

`O=C(c1cc(Cc2n[nH]c(=O)c3ccccc23)ccc1F)N1CCN(C(=O)C2CC2)CC1` + Cc1c(S(C)(=O)=O)c(-c2cc(F)cc(N3CCN(c4ccc(NS(=O)(=O)c5ccc(NC(CCN6CCC(C(=O)OCCCP(=O)(O)O)CC6)CSc6ccccc6)c(S(=O)(=O)C(F)(F)F)c5)cc4)CC3)c2)c(-c2ccc(Cl)cc2)n1C(C)C was tested, and the IC50 (second compound 0.1 µM) was over 10000 nM, the IC50 (second compound 0.316 µM) was over 10000 nM and the IC50 (second compound 1 µM) was over 10000 nM. For the same compound, the IC50 (second compound 3.16 µM) was over 10000 nM, the IC50 (second compound 10 µM) was over 10000 nM and the viability, T/C [1] was 87.3%. The viability, T/C [2] was 81.3%, the viability, T/C [11] was 92.9% and the viability, T/C [12] was 96%. The viability, T/C [13] was 82.3%, the viability, T/C [14] was 77.2% and the viability, T/C [3] was 73.6%. It also gave a viability, T/C [4] of 90.2%, a viability, T/C [15] of 73.3% and a viability, T/C [16] of 89.8%. It also gave a viability, T/C [17] of 83.4%, a viability, T/C [18] of 66.8% and a viability, T/C [5] of 70.8%. For the same compound, the viability, T/C [6] was 69%, the viability, T/C [19] was 73.4% and the viability, T/C [20] was 78%. For the same compound, the viability, T/C [21] was 66.3%, the viability, T/C [22] was 66.4% and the viability, T/C [7] was 63.4%. For the same compound, the viability, T/C [8] was 75.6%, the viability, T/C (second compound 3.16 µM, first compound 0.316 µM) was 67.6% and the viability, T/C (second compound 3.16 µM, first compound 1 µM) was 65.8%. It also gave a viability, T/C (second compound 3.16 µM, first compound 3.16 µM) of 66.9%, a viability, T/C (second compound 3.16 µM, first compound 10 µM) of 57.9% and a viability, T/C [9] of 68%. For the same compound, the viability, T/C [10] was 80.7%, the viability, T/C (second compound 10 µM, first compound 0.316 µM) was 60.6% and the viability, T/C (second compound 10 µM, first compound 1 µM) was 54.2%. It also gave a viability, T/C (second compound 10 µM, first compound 3.16 µM) of 57.1% and a viability, T/C (second compound 10 µM, first compound 10 µM) of 77.5%.

Work on `C=C(F)C(=O)N1CCN(c2nc(OCC3CCCN3C)nc3c2CCN(c2cccc4cccc(Cl)c24)C3)CC1CC#N` (stereo not given) + CNC(C)C(=O)NC1CN(S(=O)(=O)c2cccc(S(=O)(=O)N3CCC4CCC(C(=O)NC(c5ccccc5)c5ccccc5)N4C(=O)C(NC(=O)C(C)NC)C3)c2)CCC2CCC(C(=O)NC(c3ccccc3)c3ccccc3)N2C1=O yielded an IC50 (second compound 0.01 µM) of 2630 nM, an IC50 (second compound 0.0316 µM) of 1880 nM and an IC50 (second compound 0.1 µM) of 1500 nM. The IC50 (second compound 0.316 µM) was 1070 nM, the IC50 (second compound 1 µM) was 1090 nM and the viability, T/C (second compound 0.01 µM, first compound 0.0316 µM) was 85.3%. The viability, T/C (second compound 0.01 µM, first compound 0.1 µM) was 85%, the viability, T/C (second compound 0.01 µM, first compound 0.316 µM) was 83% and the viability, T/C (second compound 0.01 µM, first compound 1 µM) was 86.6%. For the same compound, the viability, T/C (second compound 0.01 µM, first compound 3.16 µM) was 43.2%, the viability, T/C (second compound 0.01 µM, first compound 10 µM) was 0.21% and the viability, T/C (second compound 0.0316 µM, first compound 0.0316 µM) was 83.9%. The viability, T/C (second compound 0.0316 µM, first compound 0.1 µM) was 86.8%, the viability, T/C (second compound 0.0316 µM, first compound 0.316 µM) was 86.5% and the viability, T/C (second compound 0.0316 µM, first compound 1 µM) was 72%. It also gave a viability, T/C (second compound 0.0316 µM, first compound 3.16 µM) of 31.6%, a viability, T/C (second compound 0.0316 µM, first compound 10 µM) of 0.18% and a viability, T/C [1] of 66.5%. It also gave a viability, T/C [2] of 77.1%, a viability, T/C [11] of 79.5% and a viability, T/C [12] of 58.4%. It also gave a viability, T/C [13] of 29.5%, a viability, T/C [14] of 0.17% and a viability, T/C [3] of 78.7%. The viability, T/C [4] was 75.1%, the viability, T/C [15] was 63.7% and the viability, T/C [16] was 56%. The viability, T/C [17] was 20%, the viability, T/C [18] was 1.79% and the viability, T/C [5] was 66.5%. It also gave a viability, T/C [6] of 62.7%, a viability, T/C [19] of 62.3% and a viability, T/C [20] of 52.3%. The viability, T/C [21] was 24.4% and the viability, T/C [22] was 2.63%.
